Results published in PMC3928078, “Ponatinib efficiently kills imatinib-resistant chronic eosinophilic leukemia cells harboring gatekeeper mutant T674I FIP1L1-PDGFRα: roles of Mcl-1 and β-catenin” (Molecular Cancer, 2014).

Molecular target: T1, FIP1L1-PDGFRα (Homo sapiens, UniProt P16234, T674I, form not given)
T1 construct: gene PDGFRA; with Pre-mRNA 3'-end-processing factor FIP1
Assay type: cell-based
Conditions: 24 h, 1000 nM, positive control; gatekeeper mutant; stated gain (imatinib resistance)

T1 sequence (P16234 550-1089 T674I limits assumed, form open): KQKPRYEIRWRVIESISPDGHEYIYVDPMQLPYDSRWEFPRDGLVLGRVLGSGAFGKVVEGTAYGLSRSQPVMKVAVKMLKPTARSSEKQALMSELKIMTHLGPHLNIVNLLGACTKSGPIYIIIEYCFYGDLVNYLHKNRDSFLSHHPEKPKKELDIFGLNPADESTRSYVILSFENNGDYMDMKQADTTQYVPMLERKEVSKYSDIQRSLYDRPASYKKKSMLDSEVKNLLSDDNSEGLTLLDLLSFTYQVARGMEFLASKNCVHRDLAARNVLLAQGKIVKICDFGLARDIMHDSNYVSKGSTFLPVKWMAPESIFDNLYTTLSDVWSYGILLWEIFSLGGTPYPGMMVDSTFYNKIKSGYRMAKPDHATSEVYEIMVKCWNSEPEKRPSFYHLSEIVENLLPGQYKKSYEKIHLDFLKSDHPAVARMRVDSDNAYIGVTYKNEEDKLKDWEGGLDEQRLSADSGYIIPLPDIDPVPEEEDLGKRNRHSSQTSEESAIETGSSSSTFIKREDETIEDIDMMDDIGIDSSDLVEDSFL
T1 sequence (Q6UN15 whole entry partner, form open): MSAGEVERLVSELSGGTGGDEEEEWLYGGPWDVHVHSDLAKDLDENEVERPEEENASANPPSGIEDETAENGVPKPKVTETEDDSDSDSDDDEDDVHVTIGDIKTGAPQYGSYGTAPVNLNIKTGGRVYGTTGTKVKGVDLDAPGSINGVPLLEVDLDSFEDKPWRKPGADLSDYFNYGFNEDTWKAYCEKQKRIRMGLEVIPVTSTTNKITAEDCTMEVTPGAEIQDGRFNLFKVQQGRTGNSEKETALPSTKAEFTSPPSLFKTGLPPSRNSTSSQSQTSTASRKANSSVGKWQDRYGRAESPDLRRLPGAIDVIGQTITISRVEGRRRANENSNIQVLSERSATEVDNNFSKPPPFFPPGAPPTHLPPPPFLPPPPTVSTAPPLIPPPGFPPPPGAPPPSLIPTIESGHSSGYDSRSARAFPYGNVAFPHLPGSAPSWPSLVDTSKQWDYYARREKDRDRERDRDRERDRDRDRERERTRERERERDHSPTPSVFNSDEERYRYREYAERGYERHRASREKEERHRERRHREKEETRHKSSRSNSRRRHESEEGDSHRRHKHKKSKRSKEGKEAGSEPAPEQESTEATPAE

## CNC(=O)c1cc(Oc2ccc(NC(=O)Nc3ccc(Cl)c(C(F)(F)F)c3)cc2)ccn1 [sorafenib]
  immunoblot of phospho-PDGFRα (Y1018) in BaF3 cells: The phosphorylation of T674I FIP1L1-PDGFRα was altered by sorafenib but not imatinib
